Values quoted from earlier work, collected in patent US12290493B2 (Advanced Respiratory Technologies, Inc., priority 2017, dated 2025).

Columns and labels:
[1] = tested on: beta adrenergic receptors
[2] = fraction of the l-epinephrine effect

Compound | beta adrenergic activity [1] | pressor effect relative to that of l-epinephrine [2]
CNCC(=O)c1ccc(O)c(O)c1 [adrenalone] | little if any beta adrenergic activity | –
CNC[C@H](O)c1ccc(O)c(O)c1 [d-epinephrine] | – | about one-fifteenth
